# What was measured:
# Assay type in all cases: in vivo, mouse
# IFN-γ = IFN-γ levels in homogenised colon samples (ELISA); conditions: mdr1a−/− mice
# Experimental: (§1) Following the acclimatisation period, mdr1a^−/− mice with mild and moderate disease scores (mild disease (0-3) was defined by absence of gain or mild body weight loss (<0.5 g) and no other symptoms, whereas moderate disease (4-10) was defined by similar symptoms as a previous group but with soft faeces or greater loss in body weight (>20%) were randomised into 4 groups and dosed subcutaneously (s.c.) with vehicle (water, n=8) or dexamethasone (0.05 mg/kg, n=9; 0.3 mg/kg, n=8 or 2 mg/kg, n=8) daily for 7 days. The 6 mdr1a^+/+ mice received vehicle (water). During the study period, one mouse from the group treated with 0.3 mg/kg dexamethasone was found dead and two were euthanised (one from the vehicle-treated group and one from the group treated with 0.05 mg/kg dexamethasone). At the end of the study all mice were euthanased. The colon and caecum from each mouse was removed and weighed. Each colon was then divided longitudinally so that one section could be processed for histological analysis and the other for cytokine measurement (see below).
# (§2) Each individual colon sample was homogenised three times for 30 seconds at 4° C. in 3ml of ice-cold Krebs' solution (Sigma Chemical Co. U.K.). Samples were centrifuged for 15 min at 35,000 g (4° C.) and supernatants were removed. IL-8 and IFN-γ levels were then measured by ELISA kits (R&D systems, U.K.). The detection limits of these kits were 31.2-2000 pg/ml. Protein levels was assayed in supernatants using the method described by Bradford (Bradford, M. (1976) Analyt. Biochem. 72, 248-254), utilising Bradford Reagent (Sigma).
# (§3) Data were analysed for the 29 mdr1a^−/− and 6 mdr1a^+/+ mice, which completed the study. Differences between vehicle treated mdr1a^−/− and mdr1a^+/+ mice were analysed using a two sample t-test (assuming equal variance for IFN-γ, growth rate in the acclimatisation period and final weight, and unequal variance for IL-8, colon weight, caecum weight, colon to body weight ratio, caecum to body weight ratio and growth rate during the study period). The effects of dexamethasone treatment were analysed using analysis of variance (ANOVA) allowing for culling group.
# [1] = system: colon/rectum of mdr1a^−/− mice; assay: Histological grading of colitis severity (score 0-4); conditions: for Colitis severity score graded histologically (Mean ± s.e.m.): scale 0-4
# Experimental: as §1
# The animals were necropsied. The colon/rectum and caecum were weighed and colon/rectum, caecum, ileum, jejunum, duodenum, stomach, mesenteric nodes, thymus, kidney, spleen were sampled and fixed in 10% buffered formalin solution. The colon/rectum and ileum were prepared in a “Swiss roll” technique (Moolenbeek, C. & Ruitenberg E. J. (1981) Lab Anim 15(1):57-9) to evaluate their whole longitudinal section one slide. Tissues were processed routinely in an automatic tissue processor, embedded in paraffin, sectioned at 4-6 μm, stained with hematoxylin and eosin (HE), and examined histologically. The colitis was graded from 0 (no significant findings) to 4 (severe proliferative and ulcerative inflammation) according to the extent of the findings and severity of mucosal changes (Table 2) by a blinded observer. In addition, the mucosal height of the whole colon/rectum were assessed about every 100 μm with a standard interactive microcomputer-assisted image analysis system.
# Colitis severity score is an ordered categorical measure graded on a scale of 0-4. This type of data is generally analysed using a proportional odds model, however due to the small sample size this was not appropriate and ANOVA was used. This makes the assumption of having normally distributed data, which although we had categorical data, seemed to hold approximately true. All analysis was carried out using Genstat 5 Release 4.2 for Windows.
# mdr1a^−/− mice = assay: mdr1a−/− mice given chlorinated drinking water as IBD model: clinical signs, body weight, colon and caecum weights; conditions: for Body weight (Mean ± s.e.m.): end of study; for Growth rate (Mean ± s.e.m.): over study period
# From the text: Forty male mdr1a^−/− mice (strain FVB.129P2-Pgy3^tm1 N7) and six control male mice (mdr1a^+/+) from the same genetic background (FVB; strain FVB/NTac) (6-8 weeks old) were obtained from Taconic Farms (U.S.A). Mice were individually housed in solid bottom cages containing autoclaved Bee Kay bedding from Bantin & Kingman (U.K.) with the addition of Envirodri, a nesting material made from virgin paper, free from deodorising chemicals, to provide enrichment. Mice were fed on RAT & Mouse No 1 maintenance diet (RMI (E) SQC) (Special Diet services, Witham, Essex, U.K.) on arrival at Pfizer. For this study we used bottled water and Klortabs (5 ppm) (Arrowmight Biosciences, U.K.) to eliminate the possibility of water borne spreading of bacterial pathogens and to provide a water supply with constant levels of chlorine. Water was changed twice a week. This study was carried out in accordance with UK legislation and approved by Pfizer's internal ethical review process.
# Prior to commencing the study, all mice (40 mdr1a^−/− and 6 mdr1a^+/+) acclimatised for 14 days. […] A scoring system was devised with different weightings for different clinical signs (Table 1). The intention was that the score should reflect the severity of the colitis.
# as §1, §3
# IL-8 = IL-8 levels in homogenised colon samples (ELISA); conditions: mdr1a−/− mice
# Experimental: as §1, §2, §3
# [2] = 0.05 mg/kg s.c. daily for 7 days
# [3] = 0.3 mg/kg s.c. daily for 7 days
# [4] = lower doses (0.05 and 0.3 mg/kg s.c.)
smiles,measurement,setting,value
C[C@@H]1C[C@H]2[C@@H]3CCC4=CC(=O)C=C[C@]4(C)[C@@]3(F)[C@@H](O)C[C@]2(C)[C@@]1(O)C(=O)CO [dexamethasone],IFN-γ level in homogenised colon (Mean ± s.e.m),IFN-γ; [2],177 ± 32.6 pg/mg protein
same,IFN-γ level in homogenised colon (Mean ± s.e.m),IFN-γ; [3],169 ± 32.6 pg/mg protein
same,IFN-γ level in homogenised colon (Mean ± s.e.m),IFN-γ; 2 mg/kg s.c. daily for 7 days,100 ± 30.5 pg/mg protein
same,Effect on IFN-γ levels in homogenised colons,IFN-γ; any of the doses used,no effect
same,Colitis severity score graded histologically (Mean ± s.e.m.),[1]; [2],4.0 ± 0.42
same,"Colitis severity score, difference from vehicle","[1]; 0.05 mg/kg s.c., p >0.05",0.3
same,Colitis severity score graded histologically (Mean ± s.e.m.),[1]; [3],3.1 ± 0.42
same,"Colitis severity score, difference from vehicle","[1]; 0.3 mg/kg s.c., p >0.05",−0.6
same,Colitis severity score graded histologically (Mean ± s.e.m.),[1]; 2 mg/kg s.c. daily for 7 days,2.4 ± 0.39
same,"Colitis severity score, difference from vehicle","[1]; 2 mg/kg s.c., p <0.05",−1.3
same,Clinical score (Mean ± s.e.m.),mdr1a^−/− mice; [2],56 ± 8.9
same,Body weight (Mean ± s.e.m.),mdr1a^−/− mice; [2],22.2 ± 0.77 g
same,Growth rate (Mean ± s.e.m.),mdr1a^−/− mice; [2],-0.427 ± 0.099 g/day
same,Clinical score (Mean ± s.e.m.),mdr1a^−/− mice; [3],37 ± 8.9
same,Body weight (Mean ± s.e.m.),mdr1a^−/− mice; [3],22.6 ± 0.77 g
same,Growth rate (Mean ± s.e.m.),mdr1a^−/− mice; [3],-0.260 ± 0.099 g/day
same,Clinical score (Mean ± s.e.m.),mdr1a^−/− mice; 2 mg/kg s.c. daily for 7 days,32 ± 8.3
same,Body weight (Mean ± s.e.m.),mdr1a^−/− mice; 2 mg/kg s.c. daily for 7 days,22.7 ± 0.72 g
same,Growth rate (Mean ± s.e.m.),mdr1a^−/− mice; 2 mg/kg s.c. daily for 7 days,-0.271 ± 0.093 g/day
same,Colon to body weight ratio,"mdr1a^−/− mice; 2 mg/kg s.c. daily for 7 days, vehicle 3.0±0.28, P=0.017",2.1±0.26
same,Absolute colon weight,"mdr1a^−/− mice; 2 mg/kg s.c. daily for 7 days, vehicle 691±52 mg, P<0.01",456 ± 48 mg
same,Effect on overall clinical scores of colitis,mdr1a^−/− mice; 0.05-2 mg/kg s.c.,no effect
same,Effect on final body weight,mdr1a^−/− mice; any of the doses used,no significant effect
same,Effect on growth rate,mdr1a^−/− mice; any of the doses used,no significant effect
same,Effect on absolute colon weight vs. vehicle,mdr1a^−/− mice; [4],no significant effect
same,Effect on colon to body weight ratio vs. vehicle,mdr1a^−/− mice; [4],no significant effect
same,IL-8 level in homogenised colon (Mean ± s.e.m),IL-8; [2],317 ± 65.7 pg/mg protein
same,IL-8 level in homogenised colon (Mean ± s.e.m),IL-8; [3],264 ± 65.7 pg/mg protein
same,IL-8 level in homogenised colon (Mean ± s.e.m),IL-8; 2 mg/kg s.c. daily for 7 days,220 ± 61.5 pg/mg protein
same,Effect on IL-8 levels in homogenised colons,IL-8; any of the doses used,no effect
